Measurements reported in PMC5914092, “Evaluation of Aldose Reductase, Protein Glycation, and Antioxidant Inhibitory Activities of Bioactive Flavonoids in Matricaria recutita L. and Their Structure-Activity Relationship” (Journal of Diabetes Research, 2018).
Entries after “also recorded” stand apart in the source; their conditions may differ. Read-outs that look alike come from different tables or passages of the source. Marks after values point to notes of the source that are not given here.

Legend:
[1] = system: sorbitol accumulation in rat lens; test: Lens culture and intracellular sorbitol measurement (ex vivo, high glucose); assay type: cell-based; settings: for Sorbitol content (mg)/lens wet weight (g): rat lens cultured 6 d in medium with 30 mM glucose, control by G 1.47 ± 0.02; for inhibition at 5 µg/mL: read-out: Inhibition (%) of sorbitol accumulation in rat lens
Method: Lens isolated from 10-week old Sprague-Dawley rats were cultured for 6 d in TC-199 medium containing 15% fetal bovine serum, 100 units/mL penicillin, and 0.1 mg/mL streptomycin, under sterile conditions and an atmosphere of 5% CO2 and 95% air at 37°C. Samples were dissolved in DMSO. The lens were divided into three groups (each group n = 3) and cultured in medium containing 30 mM glucose and RLAR-active compounds. Each lens was placed in a well containing 2.0 mL medium. Sorbitol was identified by HPLC after its derivatization by reaction with benzoic acid to form a fluorescent compound [25].

[2] = system: advanced glycation end products (AGEs); test: Methylglyoxal-bovine serum albumin assay investigating AGE formation; assay type: biochemical; settings: methylglyoxal-BSA, 37°C 24 h, mean ± RSD
Method: Bovine serum albumin (50 mg/mL) was incubated with methylglyoxal (100 mM) in sodium phosphate buffer (0.1 M, pH 7.4) in the presence of various concentrations of the compounds (including a control) at 37°C for 24 h. Then the fluorescent intensity was measured at an excitation wavelength of 355 nm and an emission wavelength of 460 nm with a luminescence spectrometer LS50B (PerkinElmer Ltd., Buckinghamshire, England). […] All reagents and samples were sterilized by filtration through […] membrane filters.

[3] = biological target: T1, rat lens aldose reductase (RLAR) (Rattus norvegicus, UniProt P07943); test: Determination of RLAR inhibition (NADPH absorbance decrease at 340 nm, DL-glyceraldehyde substrate); assay type: biochemical; settings: crude RLAR homogenate; inhibitor concentrations 1, 5, 10 μg/mL; mean ± RSD; NI: no inhibition
T1 construct: The supernatant was collected and used as RLAR; from tissue; host or cells: lens of Sprague-Dawley rats (supernatant of the homogenate after 10,000g)
Method: Crude RLAR was prepared as follows: lenses were removed from Sprague-Dawley rats (weighing 250–280 g) and frozen at −70°C until use. Noncataractous transparent lenses were pooled and a homogenate was prepared in 0.1 M phosphate buffered saline (pH 6.2). The RLAR homogenate was then centrifuged at 10,000g for 20 min at 4°C in a refrigerated centrifuge. The supernatant was collected and used as RLAR [22].
A total of 531 μL of 0.1 M potassium buffer (pH 7.0), 90 μL of NADPH solution (1.6 mM in potassium buffer), 90 μL of RLAR homogenate (6.5 U/mg), 90 μL of ammonium sulfate solution (4 M in potassium buffer), and 90 μL of DL-glyceraldehyde (25 mM in potassium buffer) were mixed with 9 μL of different concentrations of samples (1–0.1 mg/mL in DMSO, less than 1% in total mixture) in a cuvette, and the activity of RLAR was assessed spectrophotometrically by measuring the decrease in NADPH absorbance at 340 nm for 3 minutes using a spectrophotometer (SECOMAM, Ales Cedex, France).

[4] = DPPH free radical scavenging capacity; settings: concentrations 15, 30, 75 μg/mL, mean ± RSD
Method: DPPH, a stable free radical, was used to determine the free radical-scavenging activity of the extracts. Briefly, a 0.32 mM DPPH solution in MeOH were prepared, and 180 μL of this solution was mixed with 30 μL of each sample at concentrations of 0.05–1.0 mg/mL in DMSO. After 20 min of incubation in the dark, the decrease in the absorbance of the solution was measured at 570 nm on a microplate reader (EL800 Universal Microplate reader, Bio-Tek instruments, Winooski, VT, USA). DPPH radical-scavenging activity was expressed as the percentage inhibition (%) of DPPH in this assay system and was calculated as (1 − B/A) × 100, where A and B are the activities of DPPH without and with the test material, respectively.

[5] = biological target: T1, rat lens aldose reductase (RLAR); settings: cited from earlier work; for IC50: compounds isolated from other plant sources, read-out: RLAR inhibitory activity (reported data)
[6] = sample 5 μg/mL, mean ± SD (n = 3)
[7] = rat lens cultured in 30 mM glucose, sample 5 μg/mL, mean ± SD (n = 3)
[8] = concentrations 10, 25, 50 μg/mL, NI: no inhibition

Row | Structure (SMILES) | Sorbitol content (mg)/lens wet weight (g) [1, 6] | inhibition at 5 µg/mL [1, 7] [%] | IC50 [2, 8] [µM] | also measured
1 | O=c1cc(-c2ccc(O)cc2)oc2cc(O)cc(O)c12 [Compound 9, apigenin] | 0.19 ± 0.01^a mg/g | 87.1 ± 4.48 | > 97 | 
2 | O=c1cc(-c2ccc(O)c(O)c2)oc2cc(O)cc(O)c12 [Compound 10, luteolin] | 0.12 ± 0.01^a mg/g | 91.8 ± 6.87 |  | 
3 | COc1cc2oc(-c3ccc(O)cc3)c(OC)c(=O)c2c(O)c1OC [Compound 3, penduletin] |  |  | > 97 | IC50 [3]: > 28 µM; IC50 RLAR [3]: inactive; also recorded: did not show inhibitory activities; IC50 ([4]; NI: no inhibition): > 208 µM; IC50 DPPH ([4]; NI: no inhibition): almost no effect; IC50 AGEs [2, 8]: did not show inhibitory activities
4 | O=C(O)[C@H]1O[C@@H](Oc2cc(O)c3c(=O)cc(-c4ccc(O)cc4)oc3c2)[C@H](O)[C@@H](O)[C@@H]1O [Compound 5, apigenin-7-O-β-D-glucuronide] | 0.29 ± 0.01^b mg/g | 80.3 ± 2.78 | > 97 | 
5 | O=c1c(O)c(-c2ccc(O)c(O)c2)oc2cc(O)cc(O)c12 [Quercetin, quercetin, reference compound] | 0.21 ± 0.01^a mg/g | 85.7 ± 3.23 |  | 
6 | O=C1O[C@H]([C@@H](O)CO)C(O)=C1O [L-Ascorbic acid, reference compound] |  |  |  | IC50 DPPH ([4]; three independent experiments in duplicate): 6.60 ± 0.33^a μg/mL
7 | O=c1cc(-c2ccc(O)c(O)c2)oc2cc(O)cc(O[C@@H]3O[C@H](CO)[C@@H](O)[C@H](O)[C@H]3O)c12 [luteolin-5-O-β-D-glucopyranoside, reference compound] |  |  |  | Inhibitory activity on RLAR relative to its precursor (luteolin) ([5]; isolated from Cirsium maackii): ~1.58 times
8 | O=c1cc(-c2ccc(O)cc2)oc2cc(O[C@@H]3O[C@H](CO)[C@@H](O)[C@H](O)[C@H]3O)cc(O)c12 [Compound 1, apigenin-7-O-β-D-glucoside] | 0.72 ± 0.01^c mg/g | 51 ± 1.68 | > 97 | IC50 ([4]; NI: no inhibition): > 250 µM; IC50 [5]: 23 µM
9 | O=c1cc(-c2ccc(O)cc2)oc2cc(O)c(O)c(O)c12 [Compound 8, 6-hydroxyapigenin] |  |  | > 97 | IC50 [3]: > 28 µM; IC50 RLAR [3]: inactive; also recorded: did not show inhibitory activities; IC50 ([4]; NI: no inhibition): > 208 µM; IC50 DPPH ([4]; NI: no inhibition): almost no effect; IC50 AGEs [2, 8]: did not show inhibitory activities
10 | O=C(C=Cc1ccc(O)c(O)c1)OC1CC(O)(C(=O)O)CC(OC(=O)C=Cc2ccc(O)c(O)c2)C1O (stereo not drawn) [Compound 7, 3,5-O-di-caffeoylquinic acid] | 0.20 ± 0.01^a mg/g |  | > 97 | inhibition at 5 µg/mL ([1]; Rattus norvegicus): 86.4 ± 4.28%
11 | N=C(N)NN [Aminoguanidine, aminoguanidine, reference compound] |  |  |  | IC50 AGEs ([2]; concentrations 20, 100, 200 μg/mL): 109.10 ± 3.47^a μg/mL
12 | O=C(O)[C@H]1O[C@@H](Oc2cc(O)c3c(=O)cc(-c4ccc(O)c(O)c4)oc3c2)[C@H](O)[C@@H](O)[C@@H]1O [Compound 6, luteolin-7-O-β-D-glucuronide] | 0.12 ± 0.01^a mg/g | 91.8 ± 6.74 |  | 
13 | O=c1cc(-c2ccc(O)c(O)c2)oc2cc(O[C@@H]3O[C@H](CO)[C@@H](O)[C@H](O)[C@H]3O)cc(O)c12 [Compound 2, luteolin-7-O-β-D-glucoside] | 0.07 ± 0.01^a mg/g | 95.2 ± 8.18 | > 97 | IC50 [5]: 0.99 µM
